Source: ChEMBL document CHEMBL5244230, “Artemisinin-derived hybrids and their anticancer activity” (Eur J Med Chem, 2020)
Where “and” joins values, the source holds several entries; their conditions need not be identical. Equal values may be shown once.

Assays:
MDA-MB-231 [1] = assay: Antiproliferative activity against human MDA-MB-231 cells assessed as reduction in cell viability; type: functional, cell-based
MCF7 [2] = assay: Anticancer activity against human MCF7 cells; type: functional, cell-based
A549 [3] = assay: Antiproliferative activity against human A549 cells; type: functional, cell-based
[4] = Antiproliferative activity against human Renal carcinoma cell; type: functional, cell-based
Ovarian cancer cell line [5] = assay: Antiproliferative activity against human Ovarian cancer cell line; type: functional, cell-based
Melanoma cell line [6] = assay: Antiproliferative activity against human Melanoma cell line; type: functional, cell-based
[7] = Antiproliferative activity against human leukaemia cell line; type: functional, cell-based
K562 = assay: Antiproliferative activity against human K562 cells; type: functional, cell-based
PC-3 = assay: Antiproliferative activity against human PC-3 cells; type: functional, cell-based
A-431 = assay: Antiproliferative activity against human A-431 cells; type: functional, cell-based
MDA-MB-231 [8] = assay: Antiproliferative activity against human MDA-MB-231 cells; type: functional, cell-based; conditions: Homo sapiens, MDA-MB-231
COLO 205 = assay: Antiproliferative activity against human COLO 205 cells; type: functional, cell-based
HEK293 = assay: Antiproliferative activity against human HEK293 cells; type: functional, cell-based
HCT-15 [9] = assay: Antiproliferative activity against human HCT-15 cells assessed as inhibition of cell growth at 50 uM relative to control; type: functional; parameters: scale not given: the % may be the effect or the level left
HepG2 = assay: Antiproliferative activity against human HepG2 cells assessed as cell growth inhibition by MTT assay; type: functional, cell-based
A549 [10] = assay: Antiproliferative activity against human A549 cells assessed as inhibition of cell growth at 50 uM relative to control; type: functional; parameters: scale not given: the % may be the effect or the level left
THP-1 = assay: Antiproliferative activity against human THP-1 cells assessed as inhibition of cell growth at 50 uM relative to control; type: functional; parameters: scale not given: the % may be the effect or the level left
HEp-2 = assay: Antiproliferative activity against human HEp-2 cells assessed as inhibition of cell growth at 50 uM relative to control; type: functional; parameters: scale not given: the % may be the effect or the level left
A549 [11] = assay: Antiproliferative activity against human A549 cells assessed as cell growth inhibition by MTT assay; type: functional, cell-based
HCT-15 [12] = assay: Antiproliferative activity against human HCT-15 cells assessed as cell growth inhibition by MTT assay; type: functional, cell-based
Breast carcinoma cell [13] = assay: Antiproliferative activity against human Breast cancer cell line; type: functional, cell-based
[14] = Cytotoxicity against human HCEC cells; type: toxicity, cell-based
SMMC-7721 = assay: Antiproliferative activity against human SMMC-7721 cells; type: functional, cell-based
HCT-116 [15] = assay: Antiproliferative activity against human HCT-116 cells assessed as reduction in cell viability; type: functional, cell-based; conditions: hct-116
HeLa [16] = assay: Antiproliferative activity against human HeLa cells assessed as reduction in cell viability; type: functional, cell-based
Leukemia cell [17] = assay: Antiproliferative activity against human Leukemia cell assessed as reduction in cell viability; type: functional, cell-based
HeLa [18] = assay: Potency index, ratio of artesunate IC50 to test compound IC50 for antiproliferative activity against human HeLA cells assessed as inhibition of cell growth; type: functional
HCT-116 [19] = assay: Potency index, ratio of artesunate IC50 to test compound IC50 for antiproliferative activity against human HCT-116 cells assessed as inhibition of cell growth; type: functional
Leukemia cell [20] = assay: Potency index, ratio of artesunate IC50 to test compound IC50 for antiproliferative activity against human Leukemia cell assessed as inhibition of cell growth; type: functional
TRAMP-C1A [21] = assay: Cytotoxicity against mouse TRAMP-C1A cells assessed as inhibition of cell growth measured for 72 hrs by MTT assay; type: functional
TRAMP-C2H [22] = assay: Cytotoxicity against mouse TRAMP-C2H cells assessed as inhibition of cell growth measured for 72 hrs by MTT assay; type: functional
LNCaP = assay: Cytotoxicity against human LNCaP cells assessed as inhibition of cell growth measured for 72 hrs by MTT assay; type: functional
leukaemia cell line = assay: Potency index, ratio of artemisinin IC50 to test compound IC50 for antiproliferative activity against human leukaemia cell line assessed as inhibition of cell growth; type: functional
Melanoma cell line [23] = assay: Potency index, ratio of artemisinin IC50 to test compound IC50 for antiproliferative activity against human Melanoma cell line assessed as inhibition of cell growth; type: functional
Ovarian cancer cell line [24] = assay: Potency index, ratio of artemisinin IC50 to test compound IC50 for antiproliferative activity against human Ovarian cancer cell line assessed as inhibition of cell growth; type: functional
Prostatic carcinoma cell = assay: Potency index, ratio of artemisinin IC50 to test compound IC50 for antiproliferative activity against human Prostatic carcinoma cell assessed as inhibition of cell growth; type: functional
Breast carcinoma cell [25] = assay: Potency index, ratio of artemisinin IC50 to test compound IC50 for antiproliferative activity against human Breast carcinoma cell assessed as inhibition of cell growth; type: functional
P388/ADR = assay: Potency index, ratio of doxorubicin IC50 to test compound IC50 for antiproliferative activity against mouse P388/ADR cells assessed as reduction in cell viability measured after 72 hrs; type: functional
MCF7 [26] = assay: Anticancer activity against human MCF7 cells assessed as inhibition of cell growth; type: functional, cell-based
[27] = Anticancer activity against human Lu1 cells; type: functional, cell-based
HL-60 [28] = assay: Anticancer activity against human HL-60 cells; type: functional, cell-based
P388 = assay: Anticancer activity against mouse P388 cells; type: functional, cell-based
MCF7 [29] = assay: Potency index, ratio of dihydroartemisinin IC50 to test compound IC50 for anticancer activity against human MCF7 cells; type: functional
[30] = Potency index, ratio of dihydroartemisinin IC50 to test compound IC50 for anticancer activity against human Lu1 cells; type: functional
HL-60 [31] = assay: Potency index, ratio of dihydroartemisinin IC50 to test compound IC50 for anticancer activity against human HL-60 cells; type: functional
[32] = Potency index, ratio of dihydroartemisinin IC50 to test compound IC50 for anticancer activity against mouse […] cells; type: functional
TRAMP-C1A [33] = assay: Antiproliferative activity against mouse TRAMP-C1A cells; type: functional, cell-based
C2D cell line = assay: Antiproliferative activity against mouse C2D cell line; type: functional, cell-based
C2G cell line = assay: Antiproliferative activity against mouse C2G cell line; type: functional, cell-based
TRAMP-C2H [34] = assay: Antiproliferative activity against mouse TRAMP-C2H cells; type: functional, cell-based
[35] = biological target: c-Jun N-terminal kinase, JNK (Homo sapiens, UniProt P45983+P53779+P45984); assay: Inhibition of N-terminal c-Jun phosphorylation in human HeLa cells; type: cell-based

## C[C@@H]1CC[C@H]2[C@@H](C)C(=O)O[C@@H]3O[C@@]4(C)CC[C@@H]1[C@]32OO4 [ARTEMISININ]
MDA-MB-231 [1]
  IC50: > 50000 nM
MCF7 [2]
  IC50: > 50000 nM
A549 [3]
  IC50: > 50000 nM
[4]
  IC50: ≥ 40000 nM
Ovarian cancer cell line [5]
  IC50: ≥ 40000 nM
Melanoma cell line [6]
  IC50: ≥ 40000 nM
[7]
  IC50: ≥ 40000 nM
K562
  IC50: 39000 nM
PC-3
  IC50: 39000 nM
A-431
  IC50: 39000 nM
MDA-MB-231 [8]
  IC50: 39000 nM
COLO 205
  IC50: 39000 nM
HEK293
  IC50: 39000 nM
HCT-15 [9]
  Activity: 21%
HepG2
  IC50: > 300000 nM
A549 [10]
  Activity: 21%
THP-1
  Activity: 21%
HEp-2
  Activity: 21%
A549 [11]
  IC50: > 300000 nM
HCT-15 [12]
  IC50: > 300000 nM
Breast carcinoma cell [13]
  IC50: ≥ 40000 nM
[14]
  IC50: > 50000 nM
SMMC-7721
  IC50: 440 nM

## C[C@H]1[C@@H](CC(COP(=O)(Oc2ccccc2)Oc2ccccc2)C[C@H]2O[C@@H]3O[C@]4(C)CC[C@H]5[C@H](C)CC[C@@H]([C@H]2C)[C@@]35OO4)O[C@@H]2O[C@@]3(C)CC[C@H]4[C@H](C)CC[C@@H]1[C@@]24OO3 (stereo partly drawn)
HCT-116 [15]
  IC50: 40 nM and 190 nM
HeLa [16]
  IC50: 40 nM
Leukemia cell [17]
  IC50: 100 nM
HeLa [18]
  Ratio IC50: 68.8
HCT-116 [19]
  Ratio IC50: 68.8
Leukemia cell [20]
  Ratio IC50: 68.8
TRAMP-C1A [21]
  GI50: 31.9 nM
TRAMP-C2H [22]
  GI50: 44.8 nM
LNCaP
  GI50: 34.4 nM

## C[C@H]1[C@@H](OC/C(=N\O)O[C@H]2O[C@@H]3O[C@@]4(C)CC[C@H]5[C@H](C)CC[C@@H]([C@H]2C)[C@@]35OO4)O[C@@H]2O[C@@]3(C)CC[C@H]4[C@H](C)CC[C@@H]1[C@@]24OO3
[4]
  IC50: 55 nM
Ovarian cancer cell line [5]
  IC50: 55 nM
Melanoma cell line [6]
  IC50: 55 nM
[7]
  IC50: 55 nM
Breast carcinoma cell [13]
  IC50: 55 nM
Leukaemia cell line
  Ratio IC50: >=4
Melanoma cell line [23]
  Ratio IC50: >=4
Ovarian cancer cell line [24]
  Ratio IC50: >=4
Prostatic carcinoma cell
  Ratio IC50: >=4
Breast carcinoma cell [25]
  Ratio IC50: >=4
P388/ADR
  Ratio IC50: >=4

## CC1CCNC(C(=O)c2ccc(-n3cc(CO[C@H]4O[C@@H]5O[C@@]6(C)CC[C@H]7[C@H](C)CC[C@@H]([C@H]4C)[C@@]57OO6)nn3)cc2)C1 (stereo partly drawn)
MCF7 [2]
  IC50: 2500 nM
MCF7 [26]
  IC50: 2500 nM
[27]
  IC50: 2500 nM
HL-60 [28]
  IC50: 2500 nM
P388
  IC50: 2500 nM
MCF7 [29]
  Ratio IC50: 10.5
[30]
  Ratio IC50: 10.5
HL-60 [31]
  Ratio IC50: 10.5
[32]
  Ratio IC50: 10.5

## C[C@H]1[C@@H](OC(COC(=O)c2cc[n+]([O-])cc2)C[C@H]2O[C@@H]3O[C@@]4(C)CC[C@H]5[C@H](C)CC[C@@H]([C@H]2C)[C@@]35OO4)O[C@@H]2O[C@@]3(C)CC[C@H]4[C@H](C)CC[C@@H]1[C@@]24OO3 (stereo partly drawn)
TRAMP-C1A [33]
  IC50: 36.1 nM
C2D cell line
  IC50: 36.1 nM
C2G cell line
  IC50: 36.1 nM
TRAMP-C2H [34]
  IC50: 36.1 nM

## Cc1cc(N/N=C/c2ccc(O[C@H]3O[C@@H]4O[C@@]5(C)CC[C@H]6[C@H](C)CC[C@@H]([C@H]3C)[C@@]46OO5)cc2)c2cc(Cl)ccc2n1
MCF7 [2]
  IC50: 15000 nM
[35]
  IC50: 7500 nM
